Measured values: patent US11339171B2, “MDM2 inhibitors” (Gan & Lee Pharmaceuticals, priority 2017, dated 2022)
“And” between values parts separate entries of the source, which are not always exact repeats. Equal values may be shown once. Read-outs that look alike come from different tables or passages of the source.

How the values were obtained:
[1] = Pharmacokinetics in ICR mice after intravenous and intragastric administration; type: in vivo; conditions: for F*: PO 5 mg/kg vs IV 2 mg/kg; for MRT last: read-out: MRT(0-t); for MRT inf: read-out: MRT(0-∞); for Vd: read-out: Vz
Experimental: Experimental Example 3 Determination of the Pharmacokinetics of the Mdm2 Inhibitors of the Present Invention in Mice
ICR mice were used as the test animals, and the concentrations of the drugs in plasma of mice at different time points after intravenous administration and intragastric administration of the representative compounds were measured by a LC/MS/MS method, so as to study the pharmacokinetic behavior of the compounds of the present invention in mice and evaluate the pharmacokinetic characteristics thereof.
Some compounds prepared in Examples 1-180 of the present invention.
The control drug HDM201 was prepared by the method disclosed in patent No. CN104203952A.
Healthy adult ICR mice, male, 6-9 weeks old, weighing 20-30 g, purchased from Shanghai Xipuer-Bikai Laboratory Animal Co., Ltd., Animal Production License No.: SCXK (HU) 2013-0016
3.2.3 Preparation of Test Drugs
Intragastric or intravenous administration: an appropriate amount of sample was weighed, dissolved in 5% DMSO+40% PEG400+55% (10% HP-β-CD in Saline) to prepare a 0.5 mg/ml solution for intragastric or intravenous administration.
3.2.4 Administration of Test Drugs
Intravenous administration: for each test compound, 3 male ICR mice were administered intravenously at a dose of 2 mg/kg and an administration volume of […] after fasting overnight.
Intragastric administration: for each test compound, 3 male ICR mice were administered intragastrically at a dose of 5 mg/kg and an administration volume of […] after fasting overnight.
3.3 Experimental Operation
The collected plasma was stored at −80° C. before analysis. The plasma sample was analyzed by LC-MS/MS, and the sample was pretreated by protein precipitation method. The linear range of sample analysis was 1 to 2000 ng/ml. The lowest quantification limit was 1 ng/mL. WinNonlin (Pharsight, USA) was used to calculate the following pharmacokinetic parameters: area under the curve AUC(0-t), area under the curve AUC(0-∞), half-life t1/2, retention time MRT(0-∞), blood drug concentration Cmax, time taken to reach the peak blood drug concentration Tmax, bioavailability F, apparent volume of distribution Vz, and clearance rate CL.

[2] = target: T1, MDM2 (Homo sapiens, UniProt Q00987); experiment: Inhibition test of MDM2-P53 (GST-MDM2, Biotin-P53, Anti-GST-Tb, SA-XL665); type: binding
T1 construct: made in house
Procedure, shortened: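 Binding was measured by TR-FRET with GST-MDM2 at 4 nM final in PBS with 0.1% BSA, 5 mM DTT and 1 mM AEBSF. Compounds were tested as twelve-point 5-fold dilutions and incubated with the detection mix for 90 min at 25 °C with shaking before plate-reader reading and curve fitting.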

[3] = system: human osteosarcoma cell line SJSA-1; experiment: Inhibition of proliferation of human osteosarcoma cell line SJSA-1 (DAPI staining, In Cell Analyzer); conditions: Homo sapiens, SJSA-1, 72 h, read-out: IC50 (nM), inhibitory activity on proliferation of human osteosarcoma cell line SJSA-1, SJSA-1, incubated 72 h
Experimental: 2.2 Experiment Preparation:
2.2.1 Preparation of a culture medium for human osteosarcoma cell line SJSA-1: RPMI1640+10% FBS+1% penicillin/streptomycin
2.2.2 Preparation of a test compound solution:
a. the test compound solution with a certain concentration was taken, and diluted with the culture medium to obtain a compound solution with a final concentration of 20 μM;
b. 200 μL of a culture medium containing 0.2% DMSO (dimethyl sulfoxide) was added into H2-H10 of a 96-well plate; 300 μl of the above solution was added into H1; and
c. 100 μL was taken out from well H1, added into H2, and mixed well; then 100 μl of the resultant solution was taken and added into H3, and dilution was carried out in sequence until H9 to obtain the 3-fold serial dilution of the test compound.
2.3 Experimental Process:
2.3.1 SJSA-1 cells were inoculated into a 96-well cell plate with black transparent bottom at 4000 cells/100 μl/well, and cultured overnight at 37° C.;
2.3.3 Fixation: the cell plate was taken out, the culture medium was removed, and 50 μL of 4% paraformaldehyde solution was added to each well to fix for 10 min;
2.3.4 50 μl of 0.1 M glycine was added to neutralize for 10 min;
2.3.5 Washing was performed with 1×PBS (phosphate buffer solution pH7.2) twice;
2.3.6 Permeabilization: 50 μL of 0.2% TritonX-100 (Triton) was added per well, and permeabilization was carried out at room temperature for 10 min;
2.3.7 Washing was performed with 1×PBS (phosphate buffer solution pH7.2) twice;
2.3.9 Washing was performed with 1×PBS (phosphate buffer solution pH7.2) for three times; and
2.3.10 Scanning and analysis were performed by In cell analyzer.
The inhibition rate of each compound at each concentration point was calculated according to the following formula, and curve fitting was performed by GraphPad Prism 6.0 software to obtain the IC50 value.

[4] = IV 2 mg/kg, ICR mice, individual animal, 2 mg/kg
[5] = PO 5 mg/kg, ICR mice, individual animal, 5 mg/kg
[6] = male, ICR, mouse, plasma, iv, 2 mg/kg, IV 2 mg/kg, ICR mice, Mean
[7] = male, ICR, mouse, plasma, iv, 2 mg/kg, IV 2 mg/kg, ICR mice, Mean, read-out: AUC(0-t)
[8] = male, ICR, mouse, plasma, iv, 2 mg/kg, IV 2 mg/kg, ICR mice, Mean, read-out: Cmax
[9] = male, ICR, mouse, plasma, iv, 2 mg/kg, IV 2 mg/kg, ICR mice, Mean, read-out: Tmax
[10] = male, ICR, mouse, plasma, iv, 2 mg/kg, IV 2 mg/kg, ICR mice, Mean, read-out: t1/2 (converted)
[11] = male, ICR, mouse, plasma, iv, 2 mg/kg, IV 2 mg/kg, ICR mice, individual animal
[12] = male, ICR, mouse, plasma, iv, 2 mg/kg, IV 2 mg/kg, ICR mice, individual animal, read-out: AUC(0-t)
[13] = male, ICR, mouse, plasma, iv, 2 mg/kg, IV 2 mg/kg, ICR mice, individual animal, read-out: Cmax
[14] = male, ICR, mouse, plasma, iv, 2 mg/kg, IV 2 mg/kg, ICR mice, individual animal, read-out: t1/2 (converted)
[15] = male, ICR, mouse, plasma, po, 5 mg/kg, PO 5 mg/kg, ICR mice, Mean
[16] = male, ICR, mouse, plasma, po, 5 mg/kg, PO 5 mg/kg, ICR mice, Mean, read-out: AUC(0-t)
[17] = male, ICR, mouse, plasma, po, 5 mg/kg, PO 5 mg/kg, ICR mice, Mean, read-out: Cmax
[18] = male, ICR, mouse, plasma, po, 5 mg/kg, PO 5 mg/kg, ICR mice, Mean, read-out: Tmax
[19] = male, ICR, mouse, plasma, po, 5 mg/kg, PO 5 mg/kg, ICR mice, Mean, read-out: t1/2 (converted)
[20] = male, ICR, mouse, plasma, po, 5 mg/kg, PO 5 mg/kg, ICR mice, individual animal
[21] = male, ICR, mouse, plasma, po, 5 mg/kg, PO 5 mg/kg, ICR mice, individual animal, read-out: Tmax
[22] = male, ICR, mouse, plasma, po, 5 mg/kg, PO 5 mg/kg, ICR mice, individual animal, read-out: t1/2 (converted)
[23] = male, ICR, mouse, plasma, po, 5 mg/kg, oral intragastric administration 5 mg/kg, read-out: AUC0-t
[24] = male, ICR, mouse, plasma, po, 5 mg/kg, oral intragastric administration 5 mg/kg, read-out: half-life (converted)

T1 sequence (Q00987 whole entry): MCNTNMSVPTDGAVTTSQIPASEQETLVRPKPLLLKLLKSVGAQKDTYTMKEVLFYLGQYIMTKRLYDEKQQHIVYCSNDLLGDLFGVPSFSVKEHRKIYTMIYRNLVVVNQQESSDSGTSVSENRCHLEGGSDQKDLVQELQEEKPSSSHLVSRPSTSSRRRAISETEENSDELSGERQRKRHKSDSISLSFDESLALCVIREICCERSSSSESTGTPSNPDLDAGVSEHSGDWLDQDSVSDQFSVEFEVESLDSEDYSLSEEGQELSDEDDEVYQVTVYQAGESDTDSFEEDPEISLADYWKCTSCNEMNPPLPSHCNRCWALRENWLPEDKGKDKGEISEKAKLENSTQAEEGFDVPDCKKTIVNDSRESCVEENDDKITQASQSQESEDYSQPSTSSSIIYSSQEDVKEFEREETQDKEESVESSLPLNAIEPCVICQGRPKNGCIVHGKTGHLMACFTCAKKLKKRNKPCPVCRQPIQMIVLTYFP

COc1ncc(-c2nc3c(n2C(C)C)[C@@]2(C(=O)Nc4cc(Cl)ccc42)N(c2cccc(Cl)c2)C3=O)c(OC)n1 [Example S-1, (S)-6-chloro-5′-(3-chlorophenyl)-2′-(2,4-dimethoxypyrimidin-5-yl)-3′-isopropyl-3′H-spiro[dihydroindole-3,4′-pyrrolo[3,4-d]imidazole]-2,6′(5′H)-dione]
AUC(0-t) [1, 4]: 843.53 ng·h/mL and 532.69 ng·h/mL
AUC(0-∞) [1, 4]: 855.63 ng·h/mL and 548.82 ng·h/mL
CL [1, 4]: 38.9578 mL/min/kg and 60.7363 mL/min/kg
Cmax [1, 4]: 336.17 ng/mL and 307.80 ng/mL
MRT(0-t) [1, 4]: 1.34 h
MRT(0-∞) [1, 4]: 1.43 h and 1.52 h
Vz [1, 4]: 3.30882 L/kg and 6.38069 L/kg
t1/2 [1, 4]: 0.98 h and 1.21 h
F* ([1]; ICR mice): 76.30%
AUC(0-t) [1, 5]: 1822.90 ng·h/mL and 1944.41 ng·h/mL and 241.17 ng·h/mL
AUC(0-∞) [1, 5]: 1834.25 ng·h/mL and 2088.41 ng·h/mL and 330.15 ng·h/mL
Cmax [1, 5]: 629.23 ng/mL and 471.21 ng/mL and 92.81 ng/mL
MRT(0-t) [1, 5]: 2.60 h and 1.79 h
MRT(0-∞) [1, 5]: 3.17 h and 3.13 h
t1/2 [1, 5]: 1.98 h and 1.92 h
AUC(0-inf) [1, 6]: 714 ng·h/mL
clearance [1, 6]: 48.3 mL/min/kg
AUC(0-t) [1, 7]: 700 ng·h/mL
Cmax [1, 8]: 325 ng/mL
MRT last [1, 6]: 1.33 h
MRT inf [1, 6]: 1.45 h
Tmax [1, 9]: 0.083 h
Vd [1, 6]: 4.54 L/kg
half-life [1, 10]: 1.07 h
AUC(0-inf) [1, 11]: 737 ng·h/mL
clearance [1, 11]: 45.2 mL/min/kg
AUC(0-t) [1, 12]: 725 ng·h/mL
Cmax [1, 13]: 330 ng/mL
MRT last [1, 11]: 1.31 h
MRT inf [1, 11]: 1.41 h
Tmax ([1]; male, ICR, mouse, plasma, iv, 2 mg/kg, IV 2 mg/kg, ICR mice, individual animal, read-out: Tmax): 0.08 h
Vd [1, 11]: 3.92 L/kg
half-life [1, 14]: 1 h
AUC(0-inf) [1, 15]: 1420 ng·h/mL
AUC(0-t) [1, 16]: 1340 ng·h/mL
Cmax [1, 17]: 398 ng/mL
MRT last [1, 15]: 2.11 h
MRT inf [1, 15]: 2.76 h
Tmax [1, 18]: 1 h
half-life [1, 19]: 1.64 h
MRT last [1, 20]: 1.94 h
MRT inf [1, 20]: 1.99 h
Tmax [1, 21]: 1 h
half-life [1, 22]: 1.03 h
AUC(0-t) [1, 23]: 1340 ng·h/mL
half-life [1, 24]: 1.64 h
IC50 [2]: 2.21 nM
IC50 [3]: 39.6 nM

COc1ncc(-c2nc3c(n2C(C)C)[C@@]2(C(=O)Nc4cc(Cl)ccc42)N(c2cc(Cl)ccc2C)C3=O)c(OC)n1 [Example S-2, (S)-6-chloro-5′-(5-chloro-2-methylphenyl)-2′-(2,4-dimethoxypyrimidin-5-yl)-3′-isopropyl-3′H-spiro[dihydroindole-3,4′-pyrrolo[3,4-d]imidazole]-2,6′(5′H)-dione]
AUC(0-t) [1, 4]: 1477.86 ng·h/mL and 1362.57 ng·h/mL
AUC(0-∞) [1, 4]: 1494.93 ng·h/mL and 1392.31 ng·h/mL
CL [1, 4]: 22.2977 mL/min/kg and 23.941 mL/min/kg
Cmax [1, 4]: 456.11 ng/mL and 492.38 ng/mL
MRT(0-t) [1, 4]: 1.51 h
MRT(0-∞) [1, 4]: 1.54 h and 1.64 h
Tmax [1, 4]: 0.50 h and 1.00 h and 0.08 h
Vz [1, 4]: 1.80436 L/kg and 2.29183 L/kg
t1/2 [1, 4]: 0.93 h and 1.11 h
F* ([1]; ICR mice): 101.81%
AUC(0-t) [1, 5]: 3883.23 ng·h/mL and 4136.52 ng·h/mL
AUC(0-∞) [1, 5]: 4100.77 ng·h/mL and 4259.08 ng·h/mL
Cmax [1, 5]: 729.77 ng/mL and 804.59 ng/mL
MRT(0-t) [1, 5]: 2.87 h and 2.76 h
MRT(0-∞) [1, 5]: 3.28 h and 2.97 h
Tmax [1, 5]: 1.00 h
t1/2 [1, 5]: 1.83 h and 1.50 h
AUC(0-inf) [1, 6]: 1480 ng·h/mL
clearance [1, 6]: 22.5 mL/min/kg
AUC(0-t) [1, 7]: 1460 ng·h/mL
Cmax [1, 8]: 475 ng/mL
MRT last [1, 6]: 1.48 h
MRT inf [1, 6]: 1.56 h
Tmax [1, 9]: 0.528 h
Vd [1, 6]: 1.88 L/kg
half-life [1, 10]: 0.96 h
AUC(0-inf) [1, 11]: 1560 ng·h/mL
clearance [1, 11]: 21.3 mL/min/kg
AUC(0-t) [1, 12]: 1550 ng·h/mL
Cmax [1, 13]: 477 ng/mL
MRT last [1, 11]: 1.47 h
MRT inf [1, 11]: 1.51 h
Vd [1, 11]: 1.55 L/kg
half-life [1, 14]: 0.84 h
AUC(0-inf) [1, 15]: 3870 ng·h/mL
AUC(0-t) [1, 16]: 3730 ng·h/mL
Cmax [1, 17]: 730 ng/mL
MRT last [1, 15]: 2.84 h
MRT inf [1, 15]: 3.12 h
Tmax [1, 18]: 1.67 h
half-life [1, 19]: 1.59 h
AUC(0-inf) [1, 20]: 3250 ng·h/mL
AUC(0-t) ([1]; male, ICR, mouse, plasma, po, 5 mg/kg, PO 5 mg/kg, ICR mice, individual animal, read-out: AUC(0-t)): 3170 ng·h/mL
Cmax ([1]; male, ICR, mouse, plasma, po, 5 mg/kg, PO 5 mg/kg, ICR mice, individual animal, read-out: Cmax): 656 ng/mL
MRT last [1, 20]: 2.89 h
MRT inf [1, 20]: 3.09 h
Tmax [1, 21]: 2 h
half-life [1, 22]: 1.45 h
AUC(0-t) [1, 23]: 3730 ng·h/mL
half-life [1, 24]: 1.59 h
bioavailability ([1]; male, ICR, mouse, plasma, oral intragastric administration 5 mg/kg, read-out: bioavailability): 102%
IC50 [2]: 1.13 nM
IC50 [3]: 7.4 nM
